The NIST ThermoML archive (doi:10.1021/je900660x)

Columns and labels:
[1] = for mass density / viscosity / thermal conductivity: 101.33 kPa, Liquid; for mass density: Vibrating tube method; for thermal conductivity: Hot wire method
[2] = molar heat capacity at constant pressure; conditions: 101.33 kPa, Liquid, Large sample (1 g) DSC

CCCC[P+](CCCC)(CCCC)CCCC.NCCS(=O)(=O)[O-] [tetrabutylphosphonium 2-aminoethanesulfonate]
Conditions | Glass transition temperature, [1] [°C] | mass density, [1] [kg/m3] | molar heat capacity at constant pressure, [2] [J/K/mol] | viscosity, [1] [mPa·s]
293.15 K | – | 1030.1 | 987.7 | –
298.15 K | – | 1026.8 | 994.6 | 1019
303.15 K | – | 1023.7 | 1001.6 | 712.6
313.15 K | – | 1017.6 | 1015 | 345.5
323.15 K | – | 1011.5 | 1028.4 | 186.2
333.15 K | – | 1005.3 | 1042.6 | 106.7
343.15 K | – | 999.2 | 1057.6 | 67.5
353.15 K | – | 993.3 | 1073.7 | 44.2
363.15 K | – | 987.3 | 1088.6 | 29.6
DTA | -58.14 | – | – | –

CCCC[N+](C)(CCCC)CCCC.NCCS(=O)(=O)[O-] [N,N-dibutyl-N-methyl-1-butanaminium 2-aminoethanesulfonate]
Conditions | Glass transition temperature, [1] [°C] | mass density, [1] [kg/m3] | molar heat capacity at constant pressure, [2] [J/K/mol] | viscosity, [1] [mPa·s]
293.15 K | – | 1054.1 | 822.3 | –
298.15 K | – | 1051.1 | 826.9 | 6674
303.15 K | – | 1048.1 | 831.7 | 3965
313.15 K | – | 1041.6 | 842.5 | 1600
323.15 K | – | 1035.7 | 853.2 | 716
333.15 K | – | 1029.8 | 863.2 | 357.5
343.15 K | – | 1023.9 | 872.6 | 193.4
353.15 K | – | 1018 | 882.4 | 108.2
363.15 K | – | 1012.1 | 891.5 | 66.8
DTA | -54.23 | – | – | –

CCCC[P+](CCCC)(CCCC)CCCC.N[C@@H](CS)C(=O)[O-] [tetrabutylphosphonium L-cysteinate]
Conditions | Glass transition temperature, [1] [°C] | mass density, [1] [kg/m3] | molar heat capacity at constant pressure, [2] [J/K/mol] | thermal conductivity, [1] [W/m/K] | viscosity, [1] [mPa·s]
293.15 K | – | 1037.2 | 913.7 | – | –
298.15 K | – | 1033.7 | 919.8 | 0.152 | 2946
303.15 K | – | 1030 | 926.6 | 0.151 | 1866
313.15 K | – | 1023.8 | 942.5 | 0.15 | 832.7
323.15 K | – | 1017.8 | 959.6 | 0.149 | 397.4
333.15 K | – | 1011.7 | 977.1 | 0.148 | 208.4
343.15 K | – | 1005.4 | 993.4 | 0.147 | 118.3
353.15 K | – | 999.1 | 1008.2 | 0.146 | 72.5
363.15 K | – | 993 | 1021.5 | – | 46.6
DTA | -29.68 | – | – | – | –

CCCC[P+](CCCC)(CCCC)CCCC.C[C@@H](O)[C@H](N)C(=O)[O-] [tetrabutylphosphonium L-threoninate]
Conditions | Glass transition temperature, [1] [°C] | mass density, [1] [kg/m3] | molar heat capacity at constant pressure, [2] [J/K/mol] | thermal conductivity, [1] [W/m/K] | viscosity, [1] [mPa·s]
293.15 K | – | 983 | 952.2 | – | –
298.15 K | – | 979.9 | 961.3 | 0.156 | 739
303.15 K | – | 976.9 | 970.7 | 0.155 | 519.8
313.15 K | – | 970.7 | 991.5 | 0.154 | 260.1
323.15 K | – | 964.6 | 1012.6 | 0.153 | 143.2
333.15 K | – | 958.5 | 1033.4 | 0.152 | 88.5
343.15 K | – | 952.5 | 1055.7 | 0.152 | 53.9
353.15 K | – | 946.6 | 1076.4 | 0.151 | 36.2
363.15 K | – | 940.7 | 1097.2 | – | 25.1
DTA | -60.72 | – | – | – | –

CCCC[P+](CCCC)(CCCC)CCCC.N[C@@H](CO)C(=O)[O-] [tetrabutylphosphonium L-serinate]
Conditions | Glass transition temperature, [1] [°C] | mass density, [1] [kg/m3] | molar heat capacity at constant pressure, [2] [J/K/mol] | viscosity, [1] [mPa·s]
293.15 K | – | 995.5 | 742 | –
298.15 K | – | 992.3 | 748.5 | 1143
303.15 K | – | 989.2 | 755.1 | 778.4
313.15 K | – | 983 | 765.6 | 395.4
323.15 K | – | 976.9 | 776.5 | 209.4
333.15 K | – | 970.8 | 787.4 | 122.9
343.15 K | – | 964.8 | 797.6 | 77.6
353.15 K | – | 958.9 | 807.8 | 49.7
363.15 K | – | 953 | 814.7 | 34.1
DTA | -59.38 | – | – | –

CCCC[P+](CCCC)(CCCC)CCCC.O=C([O-])[C@@H]1CCCN1 [tetrabutylphosphonium L-prolinate]
Conditions | Glass transition temperature, [1] [°C] | mass density, [1] [kg/m3] | molar heat capacity at constant pressure, [2] [J/K/mol] | thermal conductivity, [1] [W/m/K] | viscosity, [1] [mPa·s]
293.15 K | – | 995.7 | 838 | – | –
298.15 K | – | 992.5 | 844.2 | 0.154 | 1695
303.15 K | – | 989.1 | 850.4 | 0.153 | 1101
313.15 K | – | 983 | 864.1 | 0.152 | 483.5
323.15 K | – | 976.9 | 879.7 | 0.151 | 241.3
333.15 K | – | 970.8 | 894.8 | 0.15 | 133.1
343.15 K | – | 964.6 | 910.1 | 0.149 | 78.2
353.15 K | – | 958.6 | 925.8 | 0.148 | 49.6
363.15 K | – | 952.6 | 939.4 | – | 32.2
DTA | -65.87 | – | – | – | –

CCCC[P+](CCCC)(CCCC)CCCC.NCCCC[C@H](N)C(=O)[O-] [tetrabutylphosphonium L-lysinate]
Conditions | Glass transition temperature, [1] [°C] | mass density, [1] [kg/m3] | molar heat capacity at constant pressure, [2] [J/K/mol] | thermal conductivity, [1] [W/m/K] | viscosity, [1] [mPa·s]
293.15 K | – | 970.5 | 987.3 | – | –
298.15 K | – | 967.5 | 997.4 | 0.163 | 741
303.15 K | – | 964.4 | 1004.3 | 0.163 | 519.8
313.15 K | – | 958.4 | 1021.3 | 0.162 | 268.7
323.15 K | – | 952.3 | 1040.3 | 0.161 | 149.7
333.15 K | – | 946.2 | 1060.1 | 0.16 | 90.4
343.15 K | – | 940.3 | 1077.9 | 0.159 | 59.8
353.15 K | – | 934.4 | 1096.5 | 0.158 | 39.7
363.15 K | – | 928.6 | 1111.5 | – | 27.5
DTA | -66.7 | – | – | – | –

CCCC[N+](C)(CCCC)CCCC.C[C@@H](O)[C@H](N)C(=O)[O-] [N,N-dibutyl-N-methyl-1-butanaminium L-threoninate]
Conditions | Glass transition temperature, [1] [°C] | mass density, [1] [kg/m3] | molar heat capacity at constant pressure, [2] [J/K/mol] | thermal conductivity, [1] [W/m/K] | viscosity, [1] [mPa·s]
293.15 K | – | 1002.6 | 748.5 | – | –
298.15 K | – | 999.5 | 752.6 | 0.16 | 8368
303.15 K | – | 996.4 | 757.1 | 0.159 | 4916
313.15 K | – | 990 | 766.9 | 0.158 | 1845
323.15 K | – | 983.7 | 777.4 | 0.157 | 791.3
333.15 K | – | 977.7 | 789.2 | 0.156 | 377.6
343.15 K | – | 971.7 | 801 | 0.155 | 200.6
353.15 K | – | 965.7 | 811.5 | 0.154 | 110.9
363.15 K | – | 959.8 | 821.1 | – | 66.2
DTA | -51.94 | – | – | – | –

CCCC[N+](C)(CCCC)CCCC.NCCCC[C@H](N)C(=O)[O-] [N,N-dibutyl-N-methyl-1-butanaminium L-lysinate]
Conditions | Glass transition temperature, [1] [°C] | mass density, [1] [kg/m3] | molar heat capacity at constant pressure, [2] [J/K/mol] | thermal conductivity, [1] [W/m/K] | viscosity, [1] [mPa·s]
293.15 K | – | 982.9 | 817.3 | – | –
298.15 K | – | 979.7 | 823.8 | 0.171 | 2593
303.15 K | – | 976.7 | 830.8 | 0.17 | 1679
313.15 K | – | 970.7 | 845.6 | 0.169 | 741.4
323.15 K | – | 964.7 | 861.2 | 0.168 | 368.6
333.15 K | – | 958.6 | 877.7 | 0.167 | 200.2
343.15 K | – | 952.7 | 893.3 | 0.166 | 112.9
353.15 K | – | 946.8 | 909.5 | 0.165 | 68.3
363.15 K | – | 940.8 | 925.1 | – | 43.9
DTA | -59.39 | – | – | – | –

CCCC[N+](C)(CCCC)CCCC.N[C@@H](CO)C(=O)[O-] [N,N-dibutyl-N-methylbutanaminium L-serinate]
Conditions | Glass transition temperature, [1] [°C] | mass density, [1] [kg/m3] | molar heat capacity at constant pressure, [2] [J/K/mol] | thermal conductivity, [1] [W/m/K] | viscosity, [1] [mPa·s]
293.15 K | – | 1018.8 | 632.4 | – | –
298.15 K | – | 1015.7 | 634.8 | 0.169 | 10214
303.15 K | – | 1012.6 | 637.6 | 0.168 | 5845
313.15 K | – | 1006.3 | 643.6 | 0.167 | 2160
323.15 K | – | 999.9 | 651 | 0.166 | 890.7
333.15 K | – | 993.9 | 658 | 0.165 | 410.3
343.15 K | – | 987.9 | 665 | 0.164 | 207.9
353.15 K | – | 981.9 | 672.9 | 0.163 | 111.8
363.15 K | – | 975.6 | 680.8 | – | 64.3
DTA | -50.59 | – | – | – | –

CC(C)[C@H](N)C(=O)[O-].CCCC[P+](CCCC)(CCCC)CCCC [tetrabutylphosphonium L-valinate]
Conditions | Glass transition temperature, [1] [°C] | mass density, [1] [kg/m3] | molar heat capacity at constant pressure, [2] [J/K/mol] | thermal conductivity, [1] [W/m/K] | viscosity, [1] [mPa·s]
293.15 K | – | – | 743.7 | – | –
298.15 K | – | – | 747.4 | – | –
303.15 K | – | – | 751.6 | – | –
313.15 K | – | 932.1 | 761.3 | 0.157 | 216.9
323.15 K | – | 926 | 771.5 | 0.156 | 120
333.15 K | – | 919.9 | 781.2 | 0.155 | 70.8
343.15 K | – | 913.9 | 791.4 | 0.154 | 44.8
353.15 K | – | 908 | 801.1 | 0.153 | 29.6
363.15 K | – | 902.1 | 810.9 | – | 20.3
DTA | -65.56 | – | – | – | –

Conditions | Normal melting temperature [°C]
[1], Crystal, DTA | 25.77
